Reference: patent US6908761B1, “Transcriptional activators” (Otsuka Pharmaceutical Co., Ltd., priority 1999, dated 2005)

Columns and labels:
Type in all cases: cell-based, Human
[1] = system: control MARE of SEQ ID No: 6; assay: Luciferase reporter assay, control MARE of SEQ ID NO: 6 in HepG2; settings: 5 μM auranofin vs absence, 18 hours, HepG2, FIG. 3
Source text: (§1) Then, 3 copies (Mol. Cell. Biol., 14, 700-712 (1994)) of various oligonucleotides (32-mers) containing the MARE sequences of SEQ ID NO: 1 through 7, comparative or control MARE sequences (SEQ ID NO: 1-4, 6 and 7), and an ARE sequence (SEQ ID NO: 5) were respectively inserted into the XhoI site of pUC118 vector with a modified poly-linker sequence. Further, the portion containing the 3 repeats of MARE sequence was excised at KpnI/BamHI site and inserted into the KpnI/BamHI site of pRBGP3. As an example of the above 32mer sequence, the one containing MARE of SEQ ID NO: 2 is shown in SEQ ID NO: 20. Here, tcgag represents the XhoI site. […]
(§2) To the culture plate was added 100 μl of the cytolytic buffer included in the […] kit to lyse the cells, and using a bench-top centrifuge, the lysate was centrifuged at 15,000 rpm for 5 seconds. The supernatant, 20 μl, of the lysate was mixed with 100 μl of the attached reagent LARII and the first chemiluminescence was measured with a luminometer. Then, 100 μl of the stopper (Stop & Glo Reagent) was added and the second chemniluminescence was measured.
(§3) The ratio of the first and second chemiluminescences was determined to calculate luciferase activity. […]

[2] = system: ARE sequence of the glutathione S-transferase Ya gene (SEQ ID NO: 5); assay: Luciferase reporter assay, 3xARE/RBGP-Luc (ARE of SEQ ID NO: 5) in HepG2; settings: HepG2, FIG. 4
Source text: (§4) Then, 3 copies (Mol. Cell. Biol., 14, 700-712 (1994)) of various oligonucleotides (32-mers) containing the MARE sequences of SEQ ID NO: 1 through 7, comparative or control MARE sequences (SEQ ID NO: 1-4, 6 and 7), and an ARE sequence (SEQ ID NO: 5) were respectively inserted into the XhoI site of pUC118 vector with a modified poly-linker sequence. Further, the portion containing the 3 repeats of MARE sequence was excised at KpnI/BamHI site and inserted into the KpnI/BamHI site of pRBGP3. As an example of the above 32mer sequence, the one containing MARE of SEQ ID NO: 2 is shown in SEQ ID NO: 20. Here, tcgag represents the XhoI site.
(§5) Thus obtained were 3xMARE/RBGP-Luc and 3xARE/RBGP-Luc plasmids containing 3 repeats of 32 oligonucleotide sequences containing the 13 oligonucleotides shown in SEQ ID NO: 1 through 7 (MARE sequences, ARE sequences, and the corresponding comparative and control sequences). SEQ ID NO: 21 is an example of the sequence contained in the resulting 3xMARE/RBGP-Luc using SEQ ID NO: 2 as MARE. The obtained recombinant expression vectors were used for subsequent transfections.
(§6) Transfections were carried out using SUPERFECT Transfection Reagent (Qiagen) according to the protocol accompanying the reagent. Human hepatocellular calcinoma cell line HepG2 was subcultured on a 35 mm plate and, after 24 hours, the transfection was carried out. Thus, a transfection solution containing 100 μl of a vector solution containing 0.25 μg of the above plasmid, 100 μl of SUPERFECT transfection reagent, and 600 μl of DMEM serum-free medium were added to a PBS-washed cell plate. After 2 hours of incubation at 37° C., the medium was changed to 10% FCS-supplemented DMEM. After 2 hours, stimulating reagents containing various heavy metal compounds inclusive of auranofin; Ridaura™, product of Sigma; 2,3,4,6-tetra-O-acetyl-1-thio-β-D-glucopyranosato-S) (triethylphosphine)gold were added and the culture was continued. The luciferase activity in the cells was assayed 15-18 hours later.
(§7) The assay of luciferase activity was carried out using Dual-Luciferase Reporter Assay System (product of Promega) according to the manufacture's protocol.
as §2
(§8) The ratio of the first and second chemiluminescences was determined to calculate luciferase activity.
The results are shown in FIG. 4 similar to FIG. 1 (the abbreviations of reagents added are the same as above; each luciferase activity ratio was calculated with the control value found by culture of the vector in the absence of the test reagent being taken as 1).

5xkB (IL2R-a) kB element = assay: Luciferase reporter assay, positive control 5xkB (IL2R-a) in HepG2; settings: 5 μM auranofin vs absence, 18 hours, HepG2, FIG. 3
Experimental: as §6, with “After 2 hours, stimulating reagents containing various heavy metal compounds inclusive of auranofin; Ridaura™, product of Sigma; 2,3,4,6-tetra-O-acetyl-1-thio-β-D-glucopyranosato-S) (triethylphosphine)gold were added and the culture was continued. The luciferase activity in the cells was assayed 15-18 hours later.” left out
as §2, §3
(§9) Each of the above vectors was cultured by the above procedure (b) for 18 hours in the presence of 5 μM auranofin or in the absence thereof and the luciferase activity was measured by the above procedure (c). […]

[3] = system: MARE sequence of SEQ ID NO: 4; assay: Luciferase reporter assay, 3xMARE/RBGP-Luc (MARE of SEQ ID NO: 4) in HepG2; settings: 5 μM auranofin vs absence, 18 hours, HepG2, FIG. 3
Source text: as §1, §2, §3

[4] = system: MARE sequence of SEQ ID NO: 3; assay: Luciferase reporter assay, 3xMARE/RBGP-Luc (MARE of SEQ ID NO: 3) in HepG2; settings: 5 μM auranofin vs absence, 18 hours, HepG2, FIG. 3
Source text: as §1, §2, §3

[5] = system: AP-1 (activator protein-1) element of SEQ ID NO: 7; assay: Luciferase reporter assay, AP-1 element of SEQ ID NO: 7 in HepG2; settings: 5 μM auranofin vs absence, 18 hours, HepG2, FIG. 3
Source text: as §1, §2, §3

[6] = system: MARE sequence of SEQ ID NO: 1; assay: Luciferase reporter assay, 3xMARE/RBGP-Luc (MARE of SEQ ID NO: 1) in HepG2; settings: 5 μM auranofin vs absence, 18 hours, HepG2, FIG. 3
Source text: as §1, §2, §3

[7] = system: 5xSRE (c-fos) serum response element; assay: Luciferase reporter assay, positive control 5xSRE (c-fos) in HepG2; settings: 5 μM auranofin vs absence, 18 hours, HepG2, FIG. 3
Experimental: as §6, with “After 2 hours, stimulating reagents containing various heavy metal compounds inclusive of auranofin; Ridaura™, product of Sigma; 2,3,4,6-tetra-O-acetyl-1-thio-β-D-glucopyranosato-S) (triethylphosphine)gold were added and the culture was continued. The luciferase activity in the cells was assayed 15-18 hours later.” left out
as §2, §3, §9

[8] = system: MARE sequence of SEQ ID NO: 2; assay: Luciferase reporter assay, 3xMARE/RBGP-Luc (MARE of SEQ ID NO: 2) transfected into HepG2
Source text: (a) Construction of a Recombinant Vector
As the basal skeleton of the recombinant vector, pGL2-Basic (product of Promega) was used. This vector is a luciferse expression vector.
The SV40 promoter of the above pGL2-Basic was substituted with oligonucleotides (SEQ ID NO: 8 and NO: 9, 41-mer each) containing the TATA sequence of rabbit β-globin promoter at Bgl II/Hind III site to construct pRBGP3 (Nature, 367, 568-572 (1994)).
as §4, §5, §6, §7, §2, §8
The recombinant expression vector (reporter plasmid) ligated with the MARE sequence of SEQ ID NO: 2 as constructed under (a) above, namely 3xMARE/RBGP-Luc, was used. Stimulating reagents containing various heavy metal compounds, namely 100 μM each of manganese chloride (MnCl2), cobalt chloride (CoCl2), nickel chloride (NiCl2), copper sulfate (CuSO4), zinc sulfate (ZnSO4), cadmium sulfate (CdSO4), mercury chloride (HgCl2) and sodium tetrachloroaurate(III) (Na(AuCl4)) and 5 μM of auranofin, were respectively added and the cells were cultured by the above procedure (b) for 18 hours. Then, luciferase activity was measured by the procedure described under (c) above. […]

[9] = 100 μM heavy metal compound, 18 hours, HepG2, control taken as 1, FIG. 1

Compound: CC[PH](CC)(CC)[Au][S][C@@H]1O[C@H](COC(C)=O)[C@@H](OC(C)=O)[C@H](OC(C)=O)[C@H]1OC(C)=O [auranofin, (2,3,4,6-tetra-O-acetyl-1-thio-β-D-glucopyranosato-S)(triethylphosphine)gold]
- action on the reporter (luciferase activity ratio) [1]: does not act on
- activity ratio (luciferase activity ratio, control taken as 1) ([2]; 5 μM): 102.9±53.4
- activity relative to that of tBHQ ([2]; AUR 5 μM vs tBHQ 60 μM): about 30 times
- action on the reporter (luciferase activity ratio) (5xkB (IL2R-a) kB element): does not act on
- transcription activity ratio (luciferase activity ratio) [3]: 112.9
- transcription activity ratio (luciferase activity ratio) [4]: 30.8
- action on the reporter (luciferase activity ratio) [5]: does not act on
- transcription activity ratio (luciferase activity ratio) [6]: 53.3
- action on the reporter (luciferase activity ratio) [7]: does not act on
- transcription activity ratio (luciferase activity ratio) ([8]; 5 μM auranofin vs absence, 18 hours, HepG2, FIG. 3, study (3)): 158.7
- luciferase activity in multiples of untreated control (Fold Activation) ([8]; 5 μM auranofin, 18 hours, HepG2, control taken as 1, FIG. 1, study (1)): 142.4 times
- dose dependence of MARE activation (luciferase activity ratio, Fold Activation) ([8]; AUR 0.5-20 μM, AuTG 20-500 μM, AuTM 10-500 μM, HepG2, FIG. 2): outstanding luciferase activation compared with the other two kinds of gold compounds

Compound: O=C(O)CC(S)C(=O)O (centres unmarked) [thiomalate]
- activity ratio (luciferase activity ratio, control taken as 1) ([2]; 100 μM): 2.1±0.6

Compound: [Cl][Hg][Cl] [mercury chloride]
- luciferase activity in multiples of untreated control (Fold Activation) [8, 9]: 10

Compound: O=S(=O)([O-])[O-].[Cd+2] [cadmium sulfate]
- luciferase activity in multiples of untreated control (Fold Activation) [8, 9]: 27.3

Compound: CC(C)(C)c1cc(O)c(C(C)(C)C)cc1O [tBHQ, 2,5-di-tert-butylhydroquinone]
- activity ratio (luciferase activity ratio, control taken as 1) ([2]; 60 μM): 6.0±3.8

Compound: OC[C@H]1O[C@H]([S-])[C@H](O)[C@@H](O)[C@@H]1O.[Au+] [AuTG, (1-thio-D-glucopyranosato)gold]
- activity ratio (luciferase activity ratio, control taken as 1) ([2]; 500 μM): 21.7±15.4

Compound: [Cl][Au-]([Cl])([Cl])[Cl].[Na+] [sodium tetrachloroaurate(III)]
- luciferase activity in multiples of untreated control (Fold Activation) [8, 9]: 4.3

Compound: O=C([O-])CC([S-])C(=O)[O-].[Au+].[Na+].[Na+] (centres unmarked) [AuTM, sodium aurothiomalate]
- activity ratio (luciferase activity ratio, control taken as 1) ([2]; 100 μM): 8.1±0.4

Compound: [Cl][Co][Cl] [cobalt chloride]
- luciferase activity in multiples of untreated control (Fold Activation) [8, 9]: 6.9
